We go through 5 molecules from publication PMC4895354 (2016).

The subject of data set [1] is r(AUUCU)11 for TR-FRET (RNA, repeat) AUUCUAUUCUAUUCUAUUCUAUUCUAUUCUAUUCUAUUCUAUUCUAUUCUAUUCU
The data set can be described thus: TR-FRET, inhibition of RNA-protein complex. To be noted: 110 mM KCl, 110 mM NaCl, 2 mM MgCl2, 2 mM CaCl2, 20 mM HEPES pH 7.5, DGCR8Δ 40 nM displaced, RNA 60 nM. A general note: TR-FRET usually uses a lanthanide donor and a delayed reading to cut background.

For data set [2], the system named is r(AUUCU)11, 5'-32P labelled (RNA, repeat) AUUCUAUUCUAUUCUAUUCUAUUCUAUUCUAUUCUAUUCUAUUCUAUUCUAUUCU
The data set can be described thus: filter binding (dot blot). To be noted: PBS, 1 mM MgCl2; pH 7.4; 50 μg/ml BSA; RNA 100 nM, compound 1 μM.

The subject of data set [3] is r(AUUCU)11 (RNA, repeat) AUUCUAUUCUAUUCUAUUCUAUUCUAUUCUAUUCUAUUCUAUUCUAUUCUAUUCU
The data set can be described thus: fluorescence titration, sigmoidal fit. Particulars: 185 mM NaCl, 8 mM Na2HPO4, pH 7.0, 0.1 mM EDTA.

Data set [4] has the same test system. The data set can be described thus: fluorescence titration, lattice (Scatchard-type) fit. To be noted: 185 mM NaCl, 8 mM Na2HPO4, pH 7.0, 0.1 mM EDTA, microscopic Kd, per site.
Data set [5] concerns AAUU (RNA, hairpin) AAUUAAUUAAUUGAAAAAUUAAUUAAUU
The data set can be described thus: fluorescence titration, sigmoidal fit. Particulars: 185 mM NaCl, 8 mM Na2HPO4, pH 7.0, 0.1 mM EDTA, RNA titrated.

The subject of data set [6] is AUAU (RNA, hairpin) AUAUAUAUAUAUGAAAAUAUAUAUAUAU
The data set can be described thus: fluorescence titration, sigmoidal fit. To be noted: 185 mM NaCl, 8 mM Na2HPO4, pH 7.0, 0.1 mM EDTA, RNA titrated.

For data set [7], the system named is GGCC (RNA, hairpin) GGCCGGCCGAAAGGCCGGCC
The data set can be described thus: fluorescence titration, sigmoidal fit. To be noted: 185 mM NaCl, 8 mM Na2HPO4, pH 7.0, 0.1 mM EDTA, RNA titrated.

In data set [8] the test system is GCGC (RNA, hairpin) GCGCGCGCGAAAGCGCGCGC
The data set can be described thus: fluorescence titration, sigmoidal fit. To be noted: 185 mM NaCl, 8 mM Na2HPO4, pH 7.0, 0.1 mM EDTA, RNA titrated.

Data set [9] has as its system r(CGG)12 (RNA, repeat) CGGCGGCGGCGGCGGCGGCGGCGGCGGCGGCGGCGG
The data set can be described thus: fluorescence titration, sigmoidal fit. Particulars: 185 mM NaCl; 8 mM Na2HPO4, pH 7.0, 0.1 mM EDTA; range over four repeats 36–87 nM.

Data set [10] has as its system r(CCUG)12 (RNA, repeat) CCUGCCUGCCUGCCUGCCUGCCUGCCUGCCUGCCUGCCUGCCUGCCUG
The data set can be described thus: fluorescence titration, sigmoidal fit. Particulars: 185 mM NaCl; 8 mM Na2HPO4, pH 7.0, 0.1 mM EDTA; range over four repeats 36–87 nM.

The test system of data set [11] is r(CUG)12 (RNA, repeat) CUGCUGCUGCUGCUGCUGCUGCUGCUGCUGCUGCUG
The data set can be described thus: fluorescence titration, sigmoidal fit. Particulars: 185 mM NaCl; 8 mM Na2HPO4, pH 7.0, 0.1 mM EDTA; range over four repeats 36–87 nM.

The next data set has as its target T1, DGCR8Δ (UniProt Q8WYQ5).
T1 sequence: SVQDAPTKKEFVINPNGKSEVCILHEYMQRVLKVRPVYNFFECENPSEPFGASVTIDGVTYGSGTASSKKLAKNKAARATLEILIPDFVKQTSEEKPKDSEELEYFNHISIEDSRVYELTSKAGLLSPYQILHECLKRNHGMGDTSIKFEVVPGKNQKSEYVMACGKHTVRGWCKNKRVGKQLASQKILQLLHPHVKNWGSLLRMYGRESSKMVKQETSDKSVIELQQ
The data set can be described thus: EMSA. Particulars: 2 mM Mg2+, 2 mM Ca2+; EMSA: 20 mM HEPES pH 7.5, 110 mM KCl, 110 mM NaCl, 0.1% BSA, 2 mM MgCl2, 2 mM CaCl2, 0.05% Tween-20, 5 mM DTT, 15 min, room temperature; native 5% PAGE. (Mobility shift assays separate free from complexed probe on a gel.)

Data set [12] concerns AUAU (RNA, hairpin) AUAUAUAUAUAUGAAAAUAUAUAUAUAU
The data set can be described thus: fluorescence titration, lattice (Scatchard-type) fit. To be noted: 185 mM NaCl; 8 mM Na2HPO4, pH 7.0, 0.1 mM EDTA; microscopic Kd; per site.

Data set [13] concerns AAUU (RNA, hairpin) AAUUAAUUAAUUGAAAAAUUAAUUAAUU
Described as above. To be noted: 185 mM NaCl; 8 mM Na2HPO4, pH 7.0, 0.1 mM EDTA; microscopic Kd; per site.

Data set [14] has as its system r(AUUCU)11, 5'-32P labelled (RNA, repeat) AUUCUAUUCUAUUCUAUUCUAUUCUAUUCUAUUCUAUUCUAUUCUAUUCUAUUCU
The data set can be described thus: RNase V1 protection. To be noted: 1× RNA Structure Buffer; compound 0-20 μM; protects each AU pair.

Consider `CCCN(CC(=O)N(CCC)CC(=O)N(CC(N)=O)Cc1cn(CCCNC(=N)c2ccc(-c3ccc(-c4ccc(C(=N)N)cc4)o3)cc2)nn1)C(=O)CNCc1cn(CCCNC(=N)c2ccc(-c3ccc(-c4ccc(C(=N)N)cc4)o3)cc2)nn1`, for which the binding entry in data set [1] (~70% inhibition at 1.5 μM) and in data set [2] was “yes” in each case. Further, the EC50 in data set [3] (without PEG 8000) stood at 0.146 ± 0.008 µM. The equilibrium dissociation constant (Kd) in data set [4] (Hill 1.4±0.4) worked out at 0.185 ± 0.001 µM.
Consider `[N-]=[N+]=NCCCNC(=N)c1ccc(-c2ccc(-c3ccc(C(=N)N)cc3)o2)cc1`, for which, in data set [1] (~25% inhibition at 1.5 μM), the binding result was “yes”. Moreover, the EC50 was 0.045 ± 0.006 µM in [5] (1 μM compound, Hill 1.0±0.17); 0.031 ± 0.004 µM in data set [6] (1 μM compound, Hill 1.0±0.13); > 6,000 nM in data set [7] (1 μM compound); > 2,000 nM in data set [8] (1 μM compound). The same molecule gave a Kd in data set [4] (Hill 1.3±0.1) of 0.375 ± 0.034 µM.
`N=C(N)c1ccc(-c2ccc(-c3ccccc3)o2)cc1`: the binding entry in data set [9], in data set [10], in [3] (range over four repeats 36–87 nM) and in [11] was “yes” in each case. In addition, the EC50 in data set [5] (3 μM compound, Hill 3.1±0.79) is 0.17 ± 0.01 µM; in data set [6] (3 μM compound, Hill 1.5±0.32), 0.045 ± 0.001 µM; in data set [7] (3 μM compound, Hill 1.4±0.34), 390 ± 20 nM; in data set [8] (3 μM compound, Hill 0.92±0.34), 240 ± 10 nM.
The molecule “AUUCUAUUCUAUUCUAUUCUAUUCUAUUCUAUUCUAUUCUAUUCUAUUCUAUUCU [r(AUUCU)11]” showed a Kd with DGCR8Δ of 1.6 µM.
Consider `N=C(N)c1ccc(-c2ccc(-c3ccc(C(=N)N)cc3)o2)cc1`, for which the dissociation constant (Kd) in [12] turned out to be 0.21 µM; in data set [4] (Hill 1.7±0.2), 0.3 ± 0.047 µM; in data set [13], 0.32 µM. The EC50 in data set [5] (1 μM compound, Hill 1.5±0.24) was 0.17 ± 0.04 µM; in data set [6] (1 μM compound, Hill 1.6±0.28), 0.19 ± 0.02 µM; in data set [7] (1 μM compound, Hill 0.85±0.08) it was 8,550±250 nM; in data set [8] (1 μM compound, Hill 0.77±0.16) it was 6,950±250 nM. Besides, the binding entry in data set [14] was “yes”.

The EC50 is the midpoint of the concentration-response curve. Read a high EC50 as a less potent agent. By Kd is commonly meant the concentration at which binding is half-saturated. Read a low Kd as tighter binding.
